Assay results: patent US8575156B2, “Cyclic inhibitors of 11β-hydroxysteroid dehydrogenase 1” (Vitae Pharmaceuticals, Inc., priority 2007, dated 2013)
Like-named read-outs stand apart in the source and are kept apart here.

Target: 11β-HSD1 (Homo sapiens, UniProt P28845)
Assay: biochemical
Conditions: for IC50: IC50 Range, Biological Test Example 1, microsomes from CHO cells overexpressing human 11β-HSD1; for inhibition at 0.1 µM: read-out: Average % inhibition at 100 nM, Biological Test Example 1; for inhibition at 0.1111 µM: read-out: Average % inhibition at 111.1 nM, Biological Test Example 1, 111.1 nM compound

11β-HSD1, sequence (P28845 whole entry): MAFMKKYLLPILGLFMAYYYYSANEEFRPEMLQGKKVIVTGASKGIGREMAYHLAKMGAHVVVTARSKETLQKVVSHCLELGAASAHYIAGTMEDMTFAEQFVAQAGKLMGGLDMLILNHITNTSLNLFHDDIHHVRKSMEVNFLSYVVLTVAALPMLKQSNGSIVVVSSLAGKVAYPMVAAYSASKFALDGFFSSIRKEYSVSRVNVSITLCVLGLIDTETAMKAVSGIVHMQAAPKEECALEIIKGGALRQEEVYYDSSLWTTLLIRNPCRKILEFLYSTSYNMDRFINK

Structure (SMILES) | IC50 | inhibition at 0.1 µM (100 nM compound) | inhibition at 0.1111 µM | inhibition at 0.1 µM (100 nM)
O=C1OC(CCO)(c2ccccc2)CCN1c1cccc(-c2ccc(F)cc2F)n1 (stereo not shown) [EXAMPLE 107, 3-(6-(2,4-difluorophenyl)pyridin-2-yl)-6-(2-hydroxyethyl)-6-phenyl-1,3-oxazinan-2-one] | < 100 nM | 90.9% | 97% | –
C=CCC1(c2ccc(F)cc2)CCN(Cc2c(Cl)cccc2Cl)C(=O)O1 (stereo not shown) [EXAMPLE 346, 6-allyl-3-(2,6-dichlorobenzyl)-6-(4-fluorophenyl)-1,3-oxazinan-2-one] | < 100 nM | – | – | 94%
C[C@@H](c1cccc(Br)c1)N1CC[C@](CCCNS(C)(=O)=O)(c2ccc(F)cc2)OC1=O [EXAMPLE 359, N-(3-((R)-3-((S)-1-(3-bromophenyl)ethyl)-6-(4-fluorophenyl)-2-oxo-1,3-oxazinan-6-yl)propyl)methanesulfonamide] | < 100 nM | – | – | 67.5%
C=CC[C@]1(c2ccc(F)cc2)CCN([C@@H](C)c2ccc(N3CCOCC3)cc2)C(=O)O1 [EXAMPLE 217, (R)-6-allyl-6-(4-fluorophenyl)-3-((S)-1-(4-morpholinophenyl)ethyl)-1,3-oxazinan-2-one] | < 100 nM | 88% | – | –
C[C@@H](c1ccc(C(F)(F)F)cc1)N1CC[C@](CCO)(c2ccc(F)cc2)OC1=O [EXAMPLE 387, (S)-6-(4-fluorophenyl)-6-(2-hydroxyethyl)-3-((S)-1-(4-(trifluoromethyl)phenyl)ethyl)-1,3-oxazinan-2-one] | < 100 nM | – | – | 95.8%
Cc1nnc(CC[C@]2(c3ccccc3)CCN([C@@H](C)c3ccc(Br)cc3)C(=O)O2)o1 [EXAMPLE 595, (R)-3-((S)-1-(4-bromophenyl)ethyl)-6-(2-(5-methyl-1,3,4-oxadiazol-2-yl)ethyl)-6-phenyl-1,3-oxazinan-2-one] | < 100 nM | – | – | 90.6%
C[C@@H](c1ccc(C(F)(F)F)cc1)N1CC[C@](CCCNS(C)(=O)=O)(c2ccc(F)cc2)OC1=O [EXAMPLE 389, N-(3-((R)-6-(4-fluorophenyl)-2-oxo-3-((S)-1-(4-(trifluoromethyl)phenyl)ethyl)-1,3-oxazinan-6-yl)propyl)methanesulfonamide] | < 100 nM | – | – | 96.4%
C[C@@H](c1ccc(-c2ccc(F)cc2)cc1)N1CC[C@](CCN2CCNC(=O)C2)(c2ccc(F)cc2)OC1=O [EXAMPLE 467, (R)-3-((S)-1-(4′-fluorobiphenyl-4-yl)ethyl)-6-(4-fluorophenyl)-6-(2-(3-oxopiperazin-1-yl)ethyl)-1,3-oxazinan-2-one] | < 100 nM | – | – | 81.2%
CSc1ccc(C2(C)CCN([C@@H](C)c3ccccc3)C(=O)O2)cc1 (stereo partly drawn) [EXAMPLE 90, 6-methyl-6-(4-(methylthio)phenyl)-3-((S)-1-phenylethyl)-1,3-oxazinan-2-one] | < 100 nM | – | 83.1% | –
C[C@@H](c1ccc(Br)cc1)N1CC[C@](CCN2CCOCC2)(c2ccccc2)OC1=O [EXAMPLE 397, (R)-3-((S)-1-(4-bromophenyl)ethyl)-6-(2-morpholinoethyl)-6-phenyl-1,3-oxazinan-2-one] | < 100 nM | – | – | 94.7%
C[C@@H](c1ccccc1)N1CC[C@@](CCO)(c2ccc(F)cc2)OC1=O (single isomer, unassigned) [EXAMPLE 97 Isomer 1] | 100 to 1000 nM | – | 52.8% | –
C[C@@H](c1ccc(F)cc1)N1CC[C@](CCO)(c2ccccc2)OC1=O [EXAMPLE 412, (S)-3-((S)-1-(4-fluorophenyl)ethyl)-6-(2-hydroxyethyl)-6-phenyl-1,3-oxazinan-2-one] | < 100 nM | – | – | 94.7%
CC1(c2ccccc2)CCN(c2cccc(-c3cccs3)c2)C(=O)O1 (stereo not shown) [EXAMPLE 36, 6-methyl-6-phenyl-3-(3-(thiophen-2-yl)phenyl)-1,3-oxazinan-2-one] | < 100 nM | – | 63.3% | –
C=CCC1(c2ccccc2)CCN(c2cccc(Br)c2)C(=O)O1 (stereo not shown) [EXAMPLE 63, 6-allyl-3-(3-bromophenyl)-6-phenyl-1,3-oxazinan-2-one] | < 100 nM | – | 59% | –
C[C@@H](c1ccc(Cl)c(F)c1)N1CC[C@](CCCO)(c2ccc(F)cc2)OC1=O [EXAMPLE 498, (R)-3-((S)-1-(4-chloro-3-fluorophenyl)ethyl)-6-(4-fluorophenyl)-6-(3-hydroxypropyl)-1,3-oxazinan-2-one] | < 100 nM | – | – | 97.8%
C[C@@H](c1ccc(-c2ccc(CO)cc2)cc1)N1CC[C@](CCCO)(c2ccccc2)OC1=O [EXAMPLE 494, (R)-3-((S)-1-(4′-(hydroxymethyl)biphenyl-4-yl)ethyl)-6-(3-hydroxypropyl)-6-phenyl-1,3-oxazinan-2-one] | < 100 nM | – | – | 100%
C=CC[C@]1(c2ccc(F)cc2)CCN([C@@H](C)c2ccccc2)C(=O)O1 (single isomer, unassigned) [EXAMPLE 95 Isomer 1] | < 100 nM | – | 91% | –
C[C@@H](c1ccc(Br)cc1)N1CC[C@](CC(C)(C)N)(c2ccc(F)cc2)OC1=O [EXAMPLE 621, (S)-6-(2-amino-2-methylpropyl)-3-((S)-1-(4-bromophenyl)ethyl)-6-(4-fluorophenyl)-1,3-oxazinan-2-one] | < 100 nM | – | – | 78.3%
CC[C@@H](c1ccc(OC(F)F)cc1)N1CC[C@](CCC(N)=O)(c2ccc(F)cc2)OC1=O [EXAMPLE 326, 3-((R)-3-((S)-1-(4-(difluoromethoxy)phenyl)propyl)-6-(4-fluorophenyl)-2-oxo-1,3-oxazinan-6-yl)propanamide] | < 100 nM | – | – | 97.7%
C[C@@H](c1ccc(Br)cc1)N1CC[C@](CC(C)(C)C(N)=O)(c2ccc(F)cc2)OC1=O [EXAMPLE 522, 3-((R)-3-((S)-1-(4-bromophenyl)ethyl)-6-(4-fluorophenyl)-2-oxo-1,3-oxazinan-6-yl)-2,2-dimethylpropanamide] | < 100 nM | – | – | 97.5%
CC(C)(C)OC(=O)N1CCC[C@H](N2CC[C@](CCC(N)=O)(c3ccc(F)cc3)OC2=O)C1 [EXAMPLE 339, (S)-tert-butyl 3-((R)-6-(3-amino-3-oxopropyl)-6-(4-fluorophenyl)-2-oxo-1,3-oxazinan-3-yl)piperidine-1-carboxylate] | < 100 nM | – | – | 65.9%
C[C@@H](c1ccc(Cl)cc1F)N1CC[C@](CCCO)(c2ccc(F)cc2)OC1=O [EXAMPLE 534, (R)-3-((S)-1-(4-chloro-2-fluorophenyl)ethyl)-6-(4-fluorophenyl)-6-(3-hydroxypropyl)-1,3-oxazinan-2-one] | < 100 nM | – | – | 98.5%
CC(O)C[C@]1(c2ccc(F)cc2)CCN([C@@H](C)c2ccc(Br)cc2)C(=O)O1 (single isomer, unassigned) [EXAMPLE 371 Isomer 1] | < 100 nM | – | – | 98.4%
CC1(c2ccccc2)CCN(c2cccc(-c3cccc(Cl)c3)c2)C(=O)O1 (stereo not shown) [EXAMPLE 24, 3-(3′-chlorobiphenyl-3-yl)-6-methyl-6-phenyl-1,3-oxazinan-2-one] | < 100 nM | 93.4% | 86% | –
CC[C@@H](c1ccc(Br)cc1)N1CC[C@](CCC(N)=O)(c2ccccc2)OC1=O [EXAMPLE 398, 3-((R)-3-((S)-1-(4-bromophenyl)propyl)-2-oxo-6-phenyl-1,3-oxazinan-6-yl)propanamide] | < 100 nM | – | – | 97.7%
